Measurements taken from ChEMBL document CHEMBL4334531, “Kalshinoids A-F, Anti-inflammatory Sesquiterpenes from Kalimeris shimadae” (J Nat Prod, 2019).
Active and inactive are the calls of the source. The rule behind the calls is not given here.

Legend:
THP-1 [1] = assay: Antiinflammatory activity against human THP1 cells assessed as inhibition of LPS-induced TNFalpha production by measuring TFNalpha level at 5 uM preincubated for 4 hrs followed by LPS challenge and measured after 24 hrs incubation by ELISA; assay type: functional
THP-1 [2] = assay: Antiinflammatory activity against human THP1 cells assessed as inhibition of LPS-induced TNFalpha production by measuring TFNalpha level at 10 uM preincubated for 4 hrs followed by LPS challenge and measured after 24 hrs incubation by ELISA; assay type: functional
THP-1 [3] = assay: Cytotoxicity against human THP1 cells assessed as reduction in cell viability after 72 hrs by SRB assay; assay type: cell-based; settings: THP-1, 72 h
[4] = Cytotoxicity against human THP1 cells assessed as cell viability at 40 uM after 72 hrs by SRB assay relative to control; assay type: cell-based; settings: THP-1 cells, read-out: Activity
THP-1 [5] = assay: Antiinflammatory activity against human THP1 cells assessed as inhibition of LPS-induced TNFalpha production preincubated for 4 hrs followed by LPS challenge and measured after 24 hrs incubation by ELISA; assay type: functional, cell-based
THP-1 [6] = assay: Antiinflammatory activity against human THP1 cells assessed as inhibition of LPS-induced TNFalpha production at 200 uM preincubated for 4 hrs followed by LPS challenge and measured after 24 hrs incubation by ELISA; assay type: functional, cell-based

Structure (SMILES)	Activity (THP-1 [1]) [pg/mL]	Activity (THP-1 [2]) [pg/mL]	IC50 (THP-1 [3]) [µM]	viability at 72 h, 40 µM [4] [%]	inhibition (THP-1 [5])	inhibition (THP-1 [6])
COC(C)(C)C1=CC[C@@](C)(O)[C@H]2CC[C@](C)(O)[C@H]2C1	801.6	722.2	> 40	> 80	Dose-dependent effect	–
C=C1CC[C@@H](O)[C@]2(C)CC[C@@](O)(C(C)(C)O)C[C@@H]12	394.3	328.9	> 40	> 80	Dose-dependent effect	–
C[C@@H]1C[C@H]2[C@@H]3CCC4=CC(=O)C=C[C@]4(C)[C@@]3(F)[C@@H](O)C[C@]2(C)[C@@]1(O)C(=O)CO	–	–	–	–	–	Active
CC(C)(O)C1=CC[C@@](C)(O)[C@H]2CC[C@@](C)(O)[C@H]2C1	699.2	241.7	> 40	> 80	Dose-dependent effect	–
